This data set is described as follows: in vitro. On the procedure: Human visceral preadipocytes were seeded in 96-well white clear bottom plates at 10,000 cells per well in 100 μl pre-adipocyte medium and incubated overnight at 37° C. 5% CO2. On the following day, adipogenic differentiation was induced by addition of 100 μl/well differentiation medium and incubation continued for 5 days. Adipogenic differentiation was verified by microscopic evaluation, addition of adipored reagents and fluorescent measurement at Ex485 nm/Em572 nm. […] Staurosporine (1 μM) and 0.2% DMSO were used as controls. Plates were incubated at 37° C. 5% CO2 for 2, 6 and 24 hours. Following incubation, cytotoxicity was measured using Cell Titer Glo 2.0 (Promega).
Test Item RZL-12 (1-300 μM) was prepared on the day of the testing as 150 mM stock solutions in DMSO. The 150 mM represents a 500×stock of the highest desired tested concentration. The 150 mM stock solution was first serially diluted in DMSO to acquire 500×stock solutions for each of the RZL-012 concentrations. The 500×stock solutions were then diluted 1:25 in medium to acquire 20×intermediate stock solutions. Finally, the 20×intermediate stock solutions were further diluted 1:20 in the assay (on the plate) that included seeded cells.
The 600 μM represents a 20× stock of the highest desired tested concentration. […] Finally, the 20×intermediate stock solutions were further diluted 1:20 in the assay plate that included seeded cells.
Human visceral pre-adipocytes (HPrAD-vis): HPrAD-vis cells (Lonza cat #PT-5005) were thawed at 37° C. and transferred into 50 ml tubes containing pre-adipocytes PGM-2 growth medium (PBM-2, 10% FBS, 1-glutamine, GA-1000). Cells were centrifuged at 300 g for 10 minutes, the supernatant was removed (Leaving about 1 ml of wash medium for not disrupting the cells) and 2 ml fresh PGM-2 medium was added. After resuspension, cells were counted and seeded in T-75 and T25 flasks at a density of 9,000 cells/cm^2 ([…], 225,000 cells/T25 flask). Medium was changed every 2-3 days until reached confluence of 70%.
Cells were sub-cultured only once, as soon as they reached 70% confluence. For this purpose, the culture medium of each flask was removed and cells were washed once with 5 ml PBS. The flask was shaken to ensure that the entire surface was covered and the PBS was removed. Then, 3 ml/T75 flask or 1 ml/T25 flask of fresh dedicated Trypsin/EDTA solution (from Lonza) was added and the flasks were incubated for 3-4 minutes at RT until ˜90% cells were detached. The Trypsin/EDTA solution was then neutralized by addition of 6 ml/T75 flask or 3 ml/T25 flask of full PGM-2 growth medium. Cells were collected in 50 ml tubes and centrifuged 10 minutes at 300 g. The supernatant was removed and the cells were resuspended in 3 ml fresh medium. Cells were then counted using a haemacytometer slide after being diluted 1:2 in trypan blue (SIGMA). For sub-culturing, cells were seeded in new T75 flasks at a density of 9,000 cells/cm^2 containing 15 ml fresh growth medium. Alternatively, the cells were seeded in 96-well culture plates at a density of 10,000 cells/well for the cell treatments.
HPrAD-vis cells: HPrAD-vis passaged once were seeded in 96-well plates as described above (10000cells/well in 100 μl medium) and allowed to settle overnight at 37° C., 5% CO2. Following day, adipogenic differentiation was induced by addition of 100 μl/well differentiation medium and incubated for 5 days. Adipogenic differentiation was verified by microscopic evaluation, addition of adipored reagents and fluorescent measurement at Ex485 nm/Em572 nm. In the morning of day 6, test and reference items were prepared as described above. Cells' medium was replaced with 90 μl fresh differentiation medium. […] Staurosporine (1 μM) and 0.2% DMSO were used as controls. Plates were incubated at 37° C. 5% CO2 for 2, 6 and 24 hours. Following incubation, cell viability was determined using the CellTiter-Gg® viability reagent (Promega) with reading of plates for luminescence. […]

Turning to `C[N+](C)(C)CCCCCn1c2ccc(Br)cc2c2cc(Br)ccc21.[Cl-]` [RZL-012, 5-(3,6-dibromo-9H-carbazol-9-yl)-N,N,N-trimethylpentan-1-aminium chloride], the IC50 – broadly, the concentration that gives 50% inhibition – is about 30 µM.
